# Test results reported in article PMC7619385 (ACS infectious diseases, 2025).
# Where two headings read alike, the source gives them in different places.
# Molecular target: T1, LmxCLK1 (Leishmania mexicana, UniProt E9AMP2)
# T1 sequence (E9AMP2 1-422): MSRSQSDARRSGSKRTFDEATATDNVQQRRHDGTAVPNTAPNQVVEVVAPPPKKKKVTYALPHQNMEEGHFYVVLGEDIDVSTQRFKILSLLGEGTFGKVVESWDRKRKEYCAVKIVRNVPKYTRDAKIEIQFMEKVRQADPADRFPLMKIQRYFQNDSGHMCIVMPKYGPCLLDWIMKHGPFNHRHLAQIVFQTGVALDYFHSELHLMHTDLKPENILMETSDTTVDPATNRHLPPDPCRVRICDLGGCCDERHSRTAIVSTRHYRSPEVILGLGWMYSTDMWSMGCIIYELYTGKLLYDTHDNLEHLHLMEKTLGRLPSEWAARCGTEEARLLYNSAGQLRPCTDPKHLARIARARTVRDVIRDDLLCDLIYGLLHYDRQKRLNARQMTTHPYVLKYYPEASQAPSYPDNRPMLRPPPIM
# Assay: biochemical
# Assay type: binding
# [1] = DSF, 10 µM compound, 2 µM LmxCLK1, Run 1
# [2] = DSF, 10 µM compound, 2 µM LmxCLK1, Run 2
# [3] = DSF, 10 µM compound, 2 µM LmxCLK1, mean of two runs
# [4] = DSF, 10 µM compound, 2 µM LmxCLK1, Run 1, read-out: ΔTm Run 1
# [5] = DSF, 10 µM compound, 2 µM LmxCLK1, Run 2, read-out: ΔTm Run 2
# [6] = DSF, 10 µM compound, 2 µM LmxCLK1, mean of two runs, read-out: ΔTm Average
SMILES,ΔTm Run 1 [1] [°C],ΔTm Run 2 [2] [°C],ΔTm Average [3] [°C],ΔTm at 10 µM [4] [°C],ΔTm at 10 µM [5] [°C],ΔTm at 10 µM [6] [°C],also measured
Cc1ccc(Nc2nccc(N(C)c3ccc4c(C)n(C)nc4c3)n2)cc1S(N)(=O)=O.Cl [Pazopanib HCl (GW786034 HCl)],-0.1,0.0,-0.1,–,–,–,–
COc1cc(OC)c(/C=C/S(=O)(=O)Cc2ccc(OC)c(NCC(=O)O)c2)c(OC)c1 [Rigosertib (ON-01910)],-0.2,-0.4,-0.3,–,–,–,–
COc1cc2c(Nc3ccc(NC(=O)c4ccccc4)cc3)ncnc2cc1OCCCN1CCOCC1 [ZM 447439],0.0,-0.2,-0.1,–,–,–,–
O=c1c(-c2ccc(O)cc2)coc2cc(O)cc(O)c12 [Genistein],–,–,–,0.2,0.3,0.2,–
Cn1c(Nc2ccc(C(F)(F)F)cc2)nc2cc(Oc3ccnc(-c4ncc(C(F)(F)F)[nH]4)c3)ccc21 [RAF265 (CHIR-265)],-0.1,-0.3,-0.2,–,–,–,–
COc1ccc(COc2cc3oc(=O)c4cc(C(C)O)ccc4c3cc2OC)cc1 (stereo not drawn) [Palomid 529 (P529)],0.3,-0.1,0.1,–,–,–,–
Cn1c(=O)c(F)c(Nc2ccc(I)cc2F)c2c(=O)n(C[C@@H](O)CO)cnc21 [TAK-733],–,–,–,0.2,-0.3,-0.1,–
C=CC(=O)Nc1cc(Nc2nccc(-c3cn(C)c4ccccc34)n2)c(OC)cc1N(C)CCN(C)C [AZD9291],–,–,–,0,-0.3,-0.2,–
Cc1cc(F)c(Nc2ncnc3cc(OCc4ccccc4)ccc23)cc1O.Cl [ZM 323881 HCl],0.1,0.0,0.0,–,–,–,–
NC(=O)c1cnc(N[C@@H]2CCCC[C@@H]2N)nc1Nc1cccc(-n2nccn2)c1 [PRT062607 (P505-15)],–,–,–,–,–,–,ΔTm Average: 1.3 °C; ΔTm Run 1: 1.3 °C; ΔTm Run 2: 1.3 °C
C=CC(=O)Nc1cccc(Nc2nc(Nc3ccc(OCCOC)cc3)ncc2F)c1 [AVL-292],–,–,–,0,-0.2,-0.1,–
C[C@@H](Oc1cc(-c2cnn(C3CCNCC3)c2)cnc1N)c1c(Cl)ccc(F)c1Cl [Crizotinib (PF-02341066)],1.4,1.4,1.4,–,–,–,–
Cc1nc(N)sc1-c1ccnc(Nc2ccc(N3CCOCC3)cc2)n1 [CYC116],–,–,–,0.4,-0.1,0.1,–
CC(C)(C)c1cc(C=C(C#N)C#N)cc(C(C)(C)C)c1O [Tyrphostin 9],-0.3,-0.3,-0.3,–,–,–,–
Nc1nc(Nc2ccc(S(N)(=O)=O)cc2)nn1C(=O)c1c(F)cccc1F [JNJ-7706621],–,–,–,1.4,1.7,1.6,–
Cc1cc(Nc2cc(N3CCN(C)CC3)nc(/C=C/c3ccccc3)n2)n[nH]1 [ENMD-2076],–,–,–,0.3,0.1,0.2,–
Nc1nc(N)c2nc(-c3cccc(O)c3)cnc2n1 [TG100713],–,–,–,–,–,–,ΔTm Average: -0.1; ΔTm Run 1: 0.1 °C; ΔTm Run 2: -0.2
CC(C)(C)c1cc(/C=C(\C#N)C(N)=S)cc(C(C)(C)C)c1O [Tyrphostin AG 879],–,–,–,-0.1,-0.2,-0.2,–
Oc1cc(O)cc(/C=C/c2ccc(O)c(O)c2)c1 [Piceatannol],–,–,–,0,0.1,0.1,–
COc1cc2c(N3CCN(C(=O)Nc4ccc(OC(C)C)cc4)CC3)ncnc2cc1OCCCN1CCCCC1 [Tandutinib (MLN518)],0.1,-0.1,0.0,–,–,–,–
Cc1c(NC(=O)OC[C@@H]2COCCN2)cn2ncnc(Nc3ccc4c(cnn4Cc4cccc(F)c4)c3)c12 [AC480 (BMS-599626)],0.4,0.2,0.3,–,–,–,–
CC(C)CCN1c2nc(Nc3cc(F)c(O)c(F)c3)ncc2N(C)C(=O)C1C (stereo not drawn) [BI-D1870],0.4,0.0,0.2,–,–,–,–
CN1CCN(CCOc2cc(OC3CCOCC3)c3c(Nc4c(Cl)ccc5c4OCO5)ncnc3c2)CC1 [Saracatinib (AZD0530)],0.8,0.7,0.7,–,–,–,–
O=C(Nc1c[nH]nc1-c1nc2ccc(CN3CCOCC3)cc2[nH]1)NC1CC1 [AT9283],–,–,–,2.2,2.1,2.2,–

SMILES,ΔTm Run 1 [1] [°C],ΔTm Run 2 [2] [°C],ΔTm Average [3] [°C],ΔTm at 10 µM [4] [°C],ΔTm at 10 µM [5] [°C],ΔTm at 10 µM [6] [°C],also measured
O=C1Nc2ccccc2/C1=C1/Nc2ccccc2C1=O [Indirubin],–,–,–,–,–,–,ΔTm at 10 µM (read-out: ΔTm Average): 0 °C; ΔTm at 10 µM (read-out: ΔTm Run 1): 0.1 °C; ΔTm at 10 µM (read-out: ΔTm Run 2): -0.1 °C
Cc1[nH]nc2ccc(-c3cncc(OC[C@@H](N)Cc4ccccc4)c3)cc12 [A-674563],–,–,–,–,–,–,ΔTm Average: 0.7 °C; ΔTm Run 1: 0.8 °C; ΔTm Run 2: 0.6 °C
O=C(c1cccc(Cl)c1F)N1CCN(Cc2cccc(Nc3nccs3)n2)CC1 [MK-8745],1.1,1.0,1.0,–,–,–,–
CC(=O)Nc1cccc(-n2c(=O)n(C3CC3)c(=O)c3c(Nc4ccc(I)cc4F)n(C)c(=O)c(C)c32)c1 [Trametinib (GSK1120212)],–,–,–,0,-0.5,-0.2,–
CCOc1cc(N2CCC(O)CC2)ccc1Nc1ncc2c(n1)N(C)c1ccccc1C(=O)N2C [XMD8-92],–,–,–,–,–,–,ΔTm Average: -0.3; ΔTm Run 1: -0.2; ΔTm Run 2: -0.5
Cl.Cl.Clc1ccc(Nc2nnc(Cc3ccncc3)c3ccccc23)cc1 [Vatalanib (PTK787) 2HCl],-0.2,0.0,-0.1,–,–,–,–
O=C(c1ccc(/C=C/c2n[nH]c3ccccc23)cc1)N1CCNCC1 [KW-2449],–,–,–,0.4,0.4,0.4,–
CN(C)C/C=C/C(=O)Nc1cc2c(Nc3ccc(F)c(Cl)c3)ncnc2cc1O[C@H]1CCOC1 [Afatinib (BIBW2992)],–,–,–,0.1,-0.5,-0.2,–
COc1cc(Nc2ncc(F)c(Nc3ccc4c(n3)NC(=O)C(C)(C)O4)n2)cc(OC)c1OC [R406 (free base)],0.0,0.0,0.0,–,–,–,–
Cc1cc(Nc2nc(N[C@@H](C)c3ccc(F)cc3)c(C#N)cc2F)[nH]n1 [AZ 960],–,–,–,0.3,0.3,0.3,–
Cl.Cl.NC1(c2ccc(-c3nc4ccn5c(=O)[nH]nc5c4cc3-c3ccccc3)cc2)CCC1 [MK-2206 2HCl],-0.1,-0.1,-0.1,–,–,–,–
C=CC(=O)N1CCC[C@@H](n2nc(-c3ccc(Oc4ccccc4)cc3)c3c(N)ncnc32)C1 [Ibrutinib (PCI-32765)],0.2,-0.2,0.0,–,–,–,–
O=C(Nc1ccc(-c2ccnc(Nc3ccc(N4CCOCC4)cc3)n2)cc1)C1CCCN1 (stereo not drawn) [XL019],–,–,–,0.6,0.4,0.5,–
C=CCc1ccc(O)c(-c2ccc(O)c(CC=C)c2)c1 [Honokiol],–,–,–,-0.2,0.2,0,–
O=c1c(O)c(-c2ccc(O)c(O)c2)oc2cc(O)cc(O)c12 [Quercetin],–,–,–,0.5,0.6,0.5,–
COc1ccc(-c2ccc3c(N4CCOCC4)nc(N4C[C@@H](C)O[C@@H](C)C4)nc3n2)cc1CO [KU-0063794],–,–,–,0.1,0.1,0.1,–
Cc1cc(N2CCOCC2)cc2[nH]c(-c3c(NC[C@@H](O)c4cccc(Cl)c4)cc[nH]c3=O)nc12 [BMS-536924],0.2,0.1,0.1,–,–,–,–
COc1cc2nccc(Oc3ccc(NC(=O)NC4CC4)c(Cl)c3)c2cc1C(N)=O [Lenvatinib (E7080)],-0.1,-0.4,-0.3,–,–,–,–
Cl.Cl.Fc1cc(-c2cccc3ncc(-c4cnn(C5CCNCC5)c4)nc23)cc(F)c1CN1CCOCC1 [NVP-BSK805 2HCl],0.9,0.7,0.8,–,–,–,–
Nc1cccc(-c2cc3c(Oc4cccc(O)c4)ncnc3[nH]2)c1 [TWS119],0.1,0.2,0.1,–,–,–,–
Cc1ccc([N+](=O)[O-])cc1S(=O)(=O)N(C)/N=C/c1cnc2ccc(Br)cn12 [PIK-75],–,–,–,–,–,–,ΔTm Average: 0.3 °C; ΔTm Run 1: 0.5 °C; ΔTm Run 2: 0.1 °C
CO[C@H]1C[C@@H]2CC[C@@H](C)[C@@](O)(O2)C(=O)C(=O)N2CCCC[C@H]2C(=O)O[C@H]([C@H](C)C[C@@H]2CC[C@@H](O)[C@H](OC)C2)CC(=O)[C@H](C)/C=C(\C)[C@@H](O)[C@@H](OC)C(=O)[C@H](C)C[C@H](C)/C=C/C=C/C=C/1C [Rapamycin (Sirolimus)],–,–,–,0.3,-0.1,0.1,–
Nc1ncnc2c1c(-c1cccc(OCc3ccccc3)c1)cn2C1CC(CN2CCCC2)C1 (stereo not drawn) [NVP-ADW742],0.0,-0.2,-0.1,–,–,–,–
